In USRE38921E1, “Phenoxyalkylcarboxylic acid derivatives and process for their preparations” (Kyorin Pharmaceutical Co., Ltd., priority 1988, dated 2005):

Columns and labels:
[1] = tested on: bronchoconstrictor response induced by leukotriene D4; assay: Inhibition test of bronchoconstriction in guinea pig; type: in vivo; parameters: unit not given here; settings: 2 hours before i.v. leukotriene D4 (3 μg/kg), anesthetized male Hartley guinea pig
Method: Male Hartley guinea pig weighing about 450 g was anesthetized with sodium pentobarbital (30 mg/kg,i.p.), and the changes in transpulmonary pressure was measured according to the modified method of Konzett-Rössler (J. Harvey et al., J. Pharmacol. Method. 9, 147-155, 1983). Bronchoconstrictor response was induced by injection of leukotriene D4 (3 μg/kg) into left jugular vein. Further, indomethacin and propranolol were injected into vein of the animal, prior to the injection of leukotriene D4. Test compounds suspended in 5% solution of Gum Arabic were administered orally 2 hours before the injection of leukotriene D4.

melting point [°C] | Compound | Inhibition ([1]; dose 3.125 mg/kg p.o.) | Inhibition ([1]; dose 6.25 mg/kg p.o.) | Inhibition ([1]; dose 12.5 mg/kg p.o.) | Inhibition ([1]; dose 50 mg/kg p.o.) | Inhibition ([1]; dose 1.56 mg/kg p.o.)
65 to 66 | CCCc1c(SCCCOc2ccc(C(C)=O)c(OCCCC(=O)OCC)c2CCC)ccc(C(C)=O)c1O [Example 1, Ethyl 4-[6-acetyl-3-[3-(4-acetyl-3-hydroxy-2-propylphenylthio)propoxy]-2-propylphenoxy]butyrate] | – | – | – | – | –
87 to 88 | CCCc1c(OCCCSc2ccc(C(C)=O)c(OCCCC(=O)OCC)c2CCC)ccc(C(C)=O)c1O [Example 23, Ethyl 4-[6-acetyl-3-[3-(4-acetyl-3-hydroxy-2-propyl-phenoxy)propylthio]-2-propylphenoxy]butyrate] | – | – | – | – | –
74 to 76 | CCCc1c([S+]([O-])CCCOc2ccc(C(C)=O)c(OCCCC(=O)OCC)c2CCC)ccc(C(C)=O)c1O (stereo not drawn) [Example 31, Ethyl 4-[6-acetyl-3-[3-(4-acetyl-3-hydroxy-2-propyl-phenylsulfinyl)propoxy]-2-propylphenoxy]butyrate] | – | – | – | – | –
77 to 79 | CCCc1c(S(=O)(=O)CCCOc2ccc(C(C)=O)c(OCCCC(=O)OCC)c2CCC)ccc(C(C)=O)c1O [Example 32, Ethyl 4-[6-acetyl-3-[3-(4-acetyl-3-hydroxy-2-propyl-phenylsulfonyl)propoxy]-2-propylphenoxy]butyrate] | – | – | – | – | –
– | CCCc1c(SCCCOc2ccc(C(C)=O)c(OCCCC(=O)O)c2CCC)ccc(C(C)=O)c1O [Example 33, 4-[6-Acetyl-3-[3-(4-acetyl-3-hydroxy-2-propyl-phenylthio)propoxy]-2-propylphenoxy]butyric acid] | 28.0 | 40.2 | 63.9 | 94.8 | –
– | CCCc1c(SCCCOc2ccc(C(C)=O)c(OCCCCCC(=O)O)c2CCC)ccc(C(C)=O)c1O [Example 35] | – | 10.7 | 51.3 | 92.4 | –
– | CCCc1c(SCCCSc2ccc(C(C)=O)c(OCCCC(=O)O)c2CCC)ccc(C(C)=O)c1O [Example 45] | 54.2 | 71.3 | 72.7 | 96.2 | 22.4
– | CCCc1c(SCCCSc2ccc(C(C)=O)c(OCCCCC(=O)O)c2CCC)ccc(C(C)=O)c1O [Example 46] | 38.5 | 46.6 | 37.5 | 94.2 | –
– | CCCc1c(SCCCSc2ccc(C(C)=O)c(OCCCCCC(=O)O)c2CCC)ccc(C(C)=O)c1O [Example 47] | 29.1 | – | 72.5 | 92.9 | –
– | CCCc1c(SCCCSc2ccc(C(C)=O)c(OCCCCCCC(=O)O)c2CCC)ccc(C(C)=O)c1O [Example 48] | 33.6 | – | 79.7 | 90.7 | –
– | CCCc1c(SCCCSc2ccc(C(C)=O)c(OCCCCCCCCC(=O)O)c2CCC)ccc(C(C)=O)c1O [Example 49] | – | 19.1 | 58.9 | 77.7 | –
– | CCCc1c(OCCCSc2ccc(C(C)=O)c(OCCCC(=O)O)c2CCC)ccc(C(C)=O)c1O [Example 53] | 15.2 | 50.4 | 60.4 | 66.7 | –
– | CCCc1c(OCCCSc2ccc(C(C)=O)c(OCCCCCC(=O)O)c2CCC)ccc(C(C)=O)c1O [Example 55] | – | 36.4 | 45.0 | 88.0 | –
